# In paper PMC8741257, “Identification of novel non-toxic and anti-angiogenic α-fluorinated chalcones as potent colchicine binding site inhibitors” (Journal of Enzyme Inhibition and Medicinal Chemistry, 2022):
# Tests used:
# [1] = test system: U937 (human leukaemia cells); test: Antiproliferative activity (CCK-8 assay); type: cell-based; conditions: U-937, mean ± SD, three separated experiments, 72 h
# Method: (§1) MCF-7, MGC-803, Hela and HepG-2 cell lines were cultured in a base medium (90% DMEM and 10% FBS), A549 and U937 were cultured in a base medium (90% PRMI-1640 and 10% FBS) at 37 °C, 5% CO2 and a saturated humidity atmosphere. All the mediums were supplemented with 10% FBS and 1% […]/streptomycin (all cells were purchased from Shanghai Institutes for Biological Sciences, Chinese Academy of Sciences, Shanghai, China).
# (§2) MGC-803 cells were collected and seeded into 96 well plates at a density of 8000/well. The mediums containing drugs and cell suspension were added into the well. The cells were incubated in 5% CO2 incubator at 37 °C for 72 h. Each well was added 10 µL CCK8 solution, and the incubation time was 3–4 h. The absorbance value at 450 nm was measured by microplate reader. Data are calculated with GraphPad Prism5 software.
# [2] = test system: MGC-803 (human gastric cancer cells); test: Antiproliferative activity (SRB / CCK-8 assay); type: cell-based; conditions: mean ± SD, three separated experiments, 72 h
# Method: as §1
# (§3) A549, MGC-803, MCF-7, HepG2 and Hela cells were seeded at the appropriate cell line density (3 × 10^3 to 4 × 10^3 cells/well). The cells were then incubated at 37 °C for 24 h in a humidified 5%CO2 in 96-well plates prior to experiments. After a further 72 h of incubation, cell proliferation was quantified with SRB ([…]) to determine the number of surviving cells. The absorbance at 560 nm was measured by microplate. The experiment was repeated three times, and the data were listed in the form of mean and standard deviation.
# as §2
# [3] = test system: HepG2 (human liver cancer cells); test: Antiproliferative activity (SRB assay); type: cell-based; conditions: mean ± SD, three separated experiments, 72 h
# Method: as §1, §3
# [4] = test system: Hela (human cervical cancer cells); test: Antiproliferative activity (SRB assay); type: cell-based; conditions: mean ± SD, three separated experiments, 72 h
# Method: as §1, §3
# [5] = test system: MCF-7 (human breast cancer cells); test: Antiproliferative activity (SRB assay); type: cell-based; conditions: MCF7, mean ± SD, three separated experiments, 72 h
# Method: as §1, §3
# [6] = test system: A549 (human non-small cell lung cancer); test: Antiproliferative activity (SRB assay); type: cell-based; conditions: mean ± SD, three separated experiments, 72 h
# Method: as §1, §3
# [7] = test system: six human cancer cell lines (MCF-7, MGC-803, HepG2, Hela, A549, U937); test: Antiproliferative activity, summary over the tested cancer cell lines; type: cell-based; conditions: tested cancer cell lines, read-out: IC50, anti-proliferative activity
# Method: as §3, §2
compound,measurement,setting,value
"COC(=O)c1ccc2c(/C=C(\F)C(=O)c3cc(OC)c(OC)c(OC)c3)c[nH]c2c1 [4a, Methyl(Z)-3–(2-fluoro-3-oxo-3–(3,4,5-trimethoxyphenyl)prop-1-en-1-yl)-1H-indole-6-carboxylate]",IC50,[1],> 5 µM
same,IC50,[2],> 5 µM
same,melting point,,207.3 to 209.1 °C
same,IC50,[3],> 5 µM
same,IC50,[4],> 5 µM
same,IC50,[5],> 5 µM
same,IC50,[6],> 5 µM
same,IC50,[7],> 5 µM
"COc1cc(C(=O)/C(F)=C/c2c(-c3ccccc3)[nH]c3ccccc23)cc(OC)c1OC [4b, (Z)-2-fluoro-3–(2-phenyl-1H-indol-3-yl)-1–(3,4,5-trimethoxyphenyl)prop-2-en-1-one]",IC50,[1],0.562 ± 0.02 µM
same,IC50,[2],0.202 ± 0.023 µM
same,melting point,,150.7 to 152.4 °C
same,IC50,[3],0.883 ± 0.041 µM
same,IC50,[4],0.685 ± 0.002 µM
same,IC50,[5],0.551 ± 0.022 µM
same,IC50,[6],3.635 ± 0.001 µM
"COC(=O)c1ccc2[nH]cc(/C=C(\F)C(=O)c3cc(OC)c(OC)c(OC)c3)c2c1 [4d, Methyl(Z)-3–(2-fluoro-3-oxo-3–(3,4,5-trimethoxyphenyl)prop-1-en-1-yl)-1H-indole-5-carboxylate]",IC50,[1],> 5 µM
same,IC50,[2],> 5 µM
same,melting point,,80.4 to 81.8 °C
same,IC50,[3],> 5 µM
same,IC50,[4],> 5 µM
same,IC50,[5],> 5 µM
same,IC50,[6],> 5 µM
same,IC50,[7],> 5 µM
"COc1cc(C(=O)/C(F)=C/c2c(C)[nH]c3ccccc23)cc(OC)c1OC [4e, (Z)-2-fluoro-3–(2-methyl-1H-indol-3-yl)-1–(3,4,5-trimethoxyphenyl)prop-2-en-1-one]",IC50,[1],0.123 ± 0.011 µM
same,IC50,[2],0.072 ± 0.002 µM
same,melting point,,204 to 206.4 °C
same,IC50,[3],1.385 ± 0.001 µM
same,IC50,[4],0.101 ± 0.031 µM
same,IC50,[5],0.551 ± 0.014 µM
same,IC50,[6],> 5 µM
"COc1cc(C(=O)/C(F)=C/c2csc3ccccc23)cc(OC)c1OC [4g, (Z)-3-(benzo[b]thiophen-3-yl)-2-fluoro-1–(3,4,5-trimethoxyphenyl)prop-2-en-1-one]",IC50,[1],0.456 ± 0.013 µM
same,IC50,[2],0.021 ± 0.007 µM
same,melting point,,118 to 119 °C
same,IC50,[3],0.199 ± 0.006 µM
same,IC50,[4],0.072 ± 0.001 µM
same,IC50,[5],0.121 ± 0.012 µM
same,IC50,[6],0.505 ± 0.01 µM
"COc1cc(C(=O)/C(F)=C/c2cc3ccccc3s2)cc(OC)c1OC [4h, (Z)-3-(benzo[b]thiophen-2-yl)-2-fluoro-1–(3,4,5-trimethoxyphenyl)prop-2-en-1-one]",IC50,[1],0.606 ± 0.026 µM
same,IC50,[2],1.897 ± 0.001 µM
same,melting point,,122.2 to 123.6 °C
same,IC50,[3],5.976 ± 0.004 µM
same,IC50,[4],2.493 ± 0.002 µM
same,IC50,[5],2.101 ± 0.003 µM
same,IC50,[6],2.57 ± 0.159 µM
"COc1cc(C(=O)/C(F)=C/c2sc3ccccc3c2C)cc(OC)c1OC [4i, (Z)-2-fluoro-3–(3-methylbenzo[b]thiophen-2-yl)-1–(3,4,5-trimethoxyphenyl)prop-2-en-1-one]",IC50,[1],> 5 µM
same,IC50,[2],> 5 µM
same,melting point,,140.5 to 143.4 °C
same,IC50,[3],> 5 µM
same,IC50,[4],> 5 µM
same,IC50,[5],> 5 µM
same,IC50,[6],> 5 µM
"COc1cc(C(=O)/C(F)=C/c2nc3ccccc3[nH]2)cc(OC)c1OC [4j, (Z)-3-(1H-benzo[d]imidazol-2-yl)-2-fluoro-1–(3,4,5-trimethoxyphenyl)prop-2-en-1-one]",IC50,[1],> 5 µM
same,IC50,[2],> 5 µM
same,melting point,,178.9 to 180.9 °C
same,IC50,[3],> 5 µM
same,IC50,[4],> 5 µM
same,IC50,[5],> 5 µM
same,IC50,[6],> 5 µM
"COc1cc(C(=O)/C(F)=C/c2cccc3c2OCO3)cc(OC)c1OC [4k, (Z)-3-(benzo[d][1,3]dioxol-4-yl)-2-fluoro-1–(3,4,5-trimethoxyphenyl)prop-2-en-1-one]",IC50,[1],0.806 ± 0.024 µM
same,IC50,[2],0.166 ± 0.004 µM
same,melting point,,148.1 to 149.1 °C
same,IC50,[3],3.298 ± 0.007 µM
same,IC50,[4],0.565 ± 0.012 µM
same,IC50,[5],0.441 ± 0.001 µM
same,IC50,[6],> 5 µM
"COc1cc(C(=O)/C(F)=C/c2cc3c(cc2Br)OCO3)cc(OC)c1OC [4l, (Z)-3–(6-bromobenzo[d][1,3]dioxol-5-yl)-2-fluoro-1–(3,4,5-trimethoxyphenyl)prop-2-en-1-one]",IC50,[1],> 5 µM
same,IC50,[2],> 5 µM
same,melting point,,156.3 to 157.8 °C
same,IC50,[3],> 5 µM
same,IC50,[4],> 5 µM
same,IC50,[5],> 5 µM
same,IC50,[6],> 5 µM
"COc1cc(C(=O)/C(F)=C/c2ccc3occc3c2)cc(OC)c1OC [4m, (Z)-3-(benzofuran-5-yl)-2-fluoro-1–(3,4,5-trimethoxyphenyl)prop-2-en-1-one]",IC50,[1],0.71 ± 0.027 µM
same,IC50,[2],0.362 ± 0.123 µM
same,melting point,,94.1 to 94.2 °C
same,IC50,[3],1.407 ± 0.014 µM
same,IC50,[4],0.925 ± 0.007 µM
same,IC50,[5],1.002 ± 0.007 µM
same,IC50,[6],> 5 µM
"COc1cc(C(=O)/C(F)=C/c2cc3ccccc3o2)cc(OC)c1OC [4o, (Z)-3-(benzofuran-2-yl)-2-fluoro-1–(3,4,5-trimethoxyphenyl)prop-2-en-1-one]",IC50,[1],> 5 µM
same,IC50,[2],3.301 ± 0.026 µM
same,melting point,,115.5 to 116.6 °C
same,IC50,[3],> 5 µM
same,IC50,[4],> 5 µM
same,IC50,[5],4.408 ± 0.043 µM
same,IC50,[6],> 5 µM
"COc1cc(C(=O)/C(F)=C/c2oc3ccccc3c2C)cc(OC)c1OC [4p, (Z)-2-fluoro-3–(3-methylbenzofuran-2-yl)-1–(3,4,5-trimethoxyphenyl)prop-2-en-1-one]",IC50,[1],> 5 µM
same,IC50,[2],> 5 µM
same,melting point,,117.4 to 118.8 °C
same,IC50,[3],> 5 µM
same,IC50,[4],> 5 µM
same,IC50,[5],> 5 µM
same,IC50,[6],> 5 µM
"COc1cc(C(=O)/C(F)=C/c2ccc3oc4ccccc4c3c2)cc(OC)c1OC [4q, (Z)-3-(dibenzo[b,d]furan-2-yl)-2-fluoro-1–(3,4,5-trimethoxyphenyl)prop-2-en-1-one]",IC50,[1],> 5 µM
same,IC50,[2],> 5 µM
same,melting point,,114 to 116.4 °C
same,IC50,[3],> 5 µM
same,IC50,[4],> 5 µM
same,IC50,[5],> 5 µM
same,IC50,[6],> 5 µM
"COc1cc(C(=O)/C(F)=C/c2cc3c(cc2[N+](=O)[O-])OCO3)cc(OC)c1OC [4r, (Z)-2-fluoro-3–(6-nitrobenzo[d][1,3]dioxol-5-yl)-1–(3,4,5-trimethoxyphenyl)prop-2-en-1-one]",IC50,[1],> 5 µM
same,IC50,[2],> 5 µM
same,melting point,,174.7 to 176.6 °C
same,IC50,[3],> 5 µM
same,IC50,[4],> 5 µM
same,IC50,[5],> 5 µM
same,IC50,[6],> 5 µM
"COc1cc(C(=O)/C(F)=C/c2ccc3sc4ccccc4c3c2)cc(OC)c1OC [4s, (Z)-3-(dibenzo[b, d]thiophen-2-yl)-2-fluoro-1–(3,4,5-trimethoxyphenyl)prop-2-en-1-one]",IC50,[1],> 5 µM
same,IC50,[2],> 5 µM
same,melting point,,142.6 to 143.8 °C
same,IC50,[3],> 5 µM
same,IC50,[4],> 5 µM
same,IC50,[5],> 5 µM
same,IC50,[6],> 5 µM
"COc1cc(C(=O)/C(F)=C/c2coc3ccccc23)cc(OC)c1OC [4t, (Z)-3-(benzofuran-3-yl)-2-fluoro-1–(3,4,5-trimethoxyphenyl)prop-2-en-1-one]",IC50,[1],0.125 ± 0.002 µM
same,melting point,,103.7 to 104.8 °C
same,IC50,[3],1.063 ± 0.008 µM
same,IC50,[4],0.203 ± 0.006 µM
same,IC50,[5],1.293 ± 0.007 µM
same,IC50,[6],1.02 ± 0.064 µM
